The record followed here is a melting point compilation (Tetko et al.; mined from patent text by program, amines drawn as free bases though some values may be those of a salt).

As a reminder, the melting point is the temperature of the solid-liquid transition.

`Nc1ccc(CCC(=O)N(c2ccccc2)c2ccccc2)cc1N` displayed a melting point of 122 to 123 °C.
Under `O=C1NC(=O)c2ccc(-c3ccc(CN4CCCCC4)cc3)cc2C1=CNc1ccc(CN2CCCCC2)cc1` stands 159 to 160 °C; under `CCc1nn(C2CCCC2)c(N)c1C#N`, 171 to 173 °C.
The value for `COC(=O)C(C)(C)c1ccc(C(=O)Nc2cn3cc(Cl)ccc3n2)cc1` was 245 to 246 °C.
The value for `O=C1CCC(=O)N1c1ncccn1` was 148 to 150 °C.
`C/C(=C\c1ccc(C(F)(F)F)cc1)[C@H]1OC[C@H](SCc2ccc(Cl)cc2)CO1`: the melting point was in the range of 93 to 95 °C.
Under `CC(C)(C#N)c1ccc(C(=O)C2CC2)cc1` stands 80 to 82 °C; under `O=C(O)c1cccc(-c2cccc3sc(Cc4cccc(C(F)(F)F)c4)nc23)c1`, 152 to 153 °C; under `CCCn1c(=O)c2c(C(=O)OCCN(C)C)ncn2c2ccccc21`, 115 to 118 °C.
Under `CN1C(=O)[C@H](NC(=O)CCc2ccc(Cl)cc2Cl)N=C(c2ccccc2)c2ccccc21` stands 92 to 95 °C.
The value for `N#CN=C(Oc1ccccc1)N1CCCCC1` was 85.7 °C.
In turn, `O=C1CCC(N2C(=O)c3cccc(OCc4ccc5ccccc5n4)c3C2=O)C(=O)N1` (stereo not drawn) yielded a melting point of 254 to 256 °C.
The value for `N#Cc1c(CBr)c(C#N)c(CBr)c(C#N)c1CBr` was 120 °C.
Under `Oc1nc2cccnc2n1Cc1ccccc1` stands 177 to 179 °C; under `Cc1ccccc1-c1ccc(C(=O)N2Cc3ccc(C(=O)NCCCc4ccccc4)n3Cc3ccccc32)cc1C`, 183 to 184 °C; under `O=C(O)c1cccc(-c2ccc(CNC(=O)c3cccnc3Oc3ccc(F)cc3)cc2)c1`, 184 to 186 °C.
Under `O=C(O)c1ccc(CN2C(=O)C3(COc4cc5c(cc43)OCCO5)c3ccccc32)o1` (stereo not drawn) stands 192 to 195 °C.
`CCCC1(C(=O)NCCN2CCC(N3Cc4ccccc4C3=O)CC2)c2ccccc2-c2ccccc21` came in with a melting point of 219 to 221 °C.
The value for `Cc1c(Cc2ccccc2)c(=O)oc2cc(OCC#N)cc(OCC#N)c12` was 147 to 154 °C; that for `CCOc1cc(Cl)c2cc(F)c(F)c(F)c2n1` was 45 °C; that for `NC(=O)[C@@H]1[C@H](Nc2c(Br)cnc3[nH]c(-c4cncnc4)nc23)[C@H]2C=C[C@@H]1C2` was greater than 300 °C.
The value for `CCn1c(=O)c2c(nc(/C=C/c3cccc(C(C)=O)c3)n2C)n(CC)c1=O` was 221 to 222 °C; that for `COc1cc(C(C)(C)C)c(OC(C)=O)c(C(C)(C)C)c1CC(C)=O` was 133 °C.
`CCOC(=O)Cn1c(=O)c(=O)[nH]c2ccc3ccc([N+](=O)[O-])cc3c21` registered a melting point greater than 250 °C.
For the molecule `CCOC(=O)c1cc(CC)cnc1CNC(C)(C(N)=O)C(C)C` (stereo not drawn), the melting point is 68 to 72 °C.
The value for `CCOC(=O)C(Cc1cccnc1)c1nnc2c(CC(C)C)nc(-c3ccccc3)cn12` (stereo not drawn) was 110 to 111 °C; that for `O=c1c2ccccc2n(CCCCl)c2ccc(Cl)cc12` was 141 °C; that for `CCC1Cc2c(C)c(O)c(C)c(C)c2O1` (racemic) was 73 to 75 °C.
The value for `COC(=O)C(Cc1ccccc1)NC(=O)c1cc2cc(Cl)ccc2[nH]1` (stereo not drawn) was 156 to 157 °C; that for `COC(=O)C1Cc2c([nH]c3ccccc23)C(c2ccccc2)N1` (stereo not drawn) was 217 to 218 °C.
Under `CC(C)(C)OC(=O)Nc1c(C#N)cnn1-c1ccc(Cl)c(Cl)c1Cl` stands 140 to 141 °C; under `CC(C)(CO)CCCCCCCCCCCC(O)(CC(=O)O)CC(=O)O`, 102 to 103 °C; under `C=CCONC(=O)c1nc(-c2ccc(Cl)c(OC)c2F)nc(N)c1Cl`, 159 to 161 °C.
`COc1ccc2c(c1)N(C)C(=O)N(c1ccc(Cl)cc1)S2(=O)=O` showed a melting point of 167 to 168 °C.
Regarding `CC(C)C(=O)Nc1cccc(-c2ccnc3c(C(=O)c4ccco4)cnn23)c1`, the melting point lay in the range of 189 to 191 °C.
The value for `O=c1[nH]cc(-c2ccncc2)cc1[N+](=O)[O-]` was 258 to 260 °C; that for `O=[N+]([O-])c1ccc(Oc2c(Cl)cc(C(F)(F)F)cc2Cl)cc1CO` was 143 °C; that for `COc1ccc2c(c1)C(=O)N(CCN(C)CCN1C(=O)c3cc(OC)ccc3C(C)(C)C1=O)C(=O)C2(C)C` was 150 to 151 °C.
Under `Cc1oc(-c2ccccc2)nc1COc1ccc(COc2nn(Cc3ccccc3)cc2CC(=O)O)cn1` stands 87 to 88 °C.
The value for `CC(C)(C)Oc1cccc(Cl)c1C(=O)O` was 117 to 119 °C; that for `Cc1cc(C)c2nc(C(=O)O)cc(-c3ccccc3Cl)c2c1` was 234 to 235 °C; that for `CCCC(=O)c1cnc2c(C(O)CN3CCOCC3)cccc2c1Nc1ccccc1C` (stereo not drawn) was 135 to 137 °C.
With `CC(C)C(=O)c1cccc(S(N)(=O)=O)c1`, the melting point was in the range of 170 to 171 °C.
Under `COc1ccccc1Oc1cc2c(=O)c(NC=O)coc2cc1NS(C)(=O)=O` stands 226 to 227 °C; under `CNC1CCCN(C(=O)c2ccc(NC(=O)c3ccccc3C)s2)c2ccc(Cl)cc21` (stereo not drawn), 213 to 216 °C.
In turn, `O=C(O)CCSCC(=O)c1cc2[nH]c(=O)[nH]c2cc1Cl` gave a melting point of 186 to 187 °C.
Under `CON=C(C(=O)O)c1nsc(NC(=O)OCc2ccccc2)n1` stands 138 to 142 °C; under `COc1cccc2c1C(=O)N(CSc1ccccc1)S2(=O)=O`, 152 to 154 °C.
The value for `C=C(C)[C@@H]1CC[C@](C)(O)[C@@H](n2ccnc2)C1` was 126 to 128 °C.
The value for `O=C(OI(OC(=O)C(F)(F)F)C(F)(F)C(F)(F)C(F)(F)C(F)(F)C(F)(F)C(F)(F)F)C(F)(F)F` was 60 to 62 °C; that for `CC(C)(C)c1cc(C(=S)OCc2ccccc2)cc(C(C)(C)C)c1O` was 115 to 119 °C; that for `COc1cc2c(cc1OC)C(C(S)(C#N)CC(=O)O)=NCC2` (stereo not drawn) was 173 to 175 °C.
`c1cc(-c2cnco2)nc(-c2cnco2)c1`: the melting point was in the range of 190 to 191 °C.
The value for `CCCC1(C)CC(=O)c2ccc(OCc3ccccc3)c(C)c2O1` (stereo not drawn) was 45 °C; that for `CN(C(=O)c1cccc(C(=O)O)c1)c1ccc2c(=O)n3c(nc2c1)C(=Cc1ccccc1)CC3` was 302 to 304 °C; that for `O=C(NCCN1CCOCC1)c1ccc2cc(C(=O)O)[nH]c2c1` was 227 to 233 °C.
For `CNC(=S)c1c(C(F)(F)F)nc(C(F)F)c(C(=O)OC)c1NC(C)C`, the melting point is 129 to 131 °C.
The value for `CC1(C)Cc2ccccc2C1c1cncnc1SCc1cccc(F)c1` (stereo not drawn) was 60 to 62 °C.
Under `CCCCCC(CC(=O)Nc1cc(C(N)=O)ccc1C(C)(C)C)c1ccc(OCCCNS(C)(=O)=O)cc1OC` (stereo not drawn) stands 77 to 79 °C; under `Cc1cc(C)n(C)c1C(=O)c1cccnc1`, 195 to 197 °C; under `CC(N)c1ccc(NS(C)(=O)=O)c(Sc2ccc(F)cc2F)c1` (stereo not drawn), 165 to 166 °C.
`CC(=O)Nc1ccc(OCCCOc2ccc(Cl)c(Cl)c2)cc1` gave a melting point of 135 to 137 °C.
On to `CNC(=O)c1cccc(NC(=O)COc2ccccc2OC)c1`, for which the melting point is 133 °C.
Under `O=C(Cc1ccccc1)NC1SCCN1Cc1ccc(Cl)nc1` (stereo not drawn) stands 157 to 158 °C; under `CC(C)(C)OC(=O)CC(=O)c1cc2ccccc2cc1O`, 80 to 84 °C.
Under `O=C(O)C(O)=CC(=O)c1ccccc1` stands 155 to 158 °C; under `CN(C)c1ccc(C(=C2SCCCS2)c2ccccc2)cc1`, 172 to 174 °C.
Under `CCOC(OCC)C(=O)OCc1c(-c2cnccn2)ssc1=O` stands 74 to 76 °C.
On to `CC(=O)Oc1cc(-c2nc3ccccc3[nH]c2=O)cc([N+](=O)[O-])c1OC(C)=O`, for which the melting point lay in the range of 241 to 243 °C.
Under `Cc1c(CC(=O)O)c2cc(O)ccc2n1C(=O)c1ccccc1` stands 186 to 188 °C; under `O=c1c(CCCCO)c(O)c2cccnc2n1-c1ccccc1`, 206 °C.
Under `COC(=O)CCc1ccc(OCC(C)NCC(O)c2cccc(Cl)c2)cc1` (stereo not drawn) stands 65 to 73 °C.
Under `N#Cc1ccc(C(=O)N2CCN(c3ccncc3)CC2)cc1` stands 164 to 165 °C; under `CCc1[nH]c(=O)[nH]c1-c1cc(C(C)(C)C)c(O)c(C(C)(C)C)c1`, 267 to 270 °C.
Molecule `Cc1cc(O)cc(C)c1N=Cc1ccccc1O` yielded a melting point of 145 to 147 °C.
The value for `COC(=O)c1cc2c([nH]c3ccc(Br)cc32)s1` was 216 to 218 °C; that for `CCCN1CC(c2cccc(F)c2)=C(c2ccc(S(N)(=O)=O)cc2)C1=O` was 188 to 190 °C.
For `CCCCCNC(=O)N(C)c1cccc(-c2ccc(CCC(=O)O)cc2)c1`, the melting point fell in the range of 100 to 102 °C.
Under `COc1cc(Br)cc2c(N(C)C)cc(C)nc12` stands 115 to 117 °C; under `O=C(O)CC12CC3CC(CC(Cl)(C3)C1)C2`, 182 to 184 °C.
The value for `COC(=O)C1=C(NC(=O)Nc2cc(C(=O)OC(C)C)c(Cl)cc2F)CCS1` was 161 to 163 °C.
The value for `Fc1c(F)c(F)c(CSc2ncccn2)c(F)c1F` was 89 to 92 °C; that for `CN(C)CCCN(C)C1CCC2C3CCC4CCCCC4(C)C3C(O)CC21C` (stereo not drawn) was 130 to 131 °C.
`O=C=NCCC(F)(F)C(F)(F)C(F)(F)C(F)(F)C(F)(F)C(F)(F)C(F)(F)C(F)(F)C(F)(F)C(F)(F)F` yielded a melting point of 70 to 71 °C.
The value for `O=C1CCC2=C(c3ccccc3)c3cc(Cl)ccc3C2N1` (stereo not drawn) was 234 to 238 °C; that for `O=C(O)c1cccc(Nc2ccc(-c3ccoc3)cc2[N+](=O)[O-])c1` was 203 to 205 °C.
As for `O=c1oc(Nc2ccc(Oc3ccccc3)cc2)nc2sccc12`, the melting point lay within 206 to 210 °C.
Under `CCC(=O)Nc1cc(S(=O)c2ccccc2)ccc1NC(=NC(=O)OC)NC(=O)OC` (stereo not drawn) stands 193 to 195 °C.
